Results published in US20080096967A1, “Formulations for Injection of Catecholic Butanes, Including Ndga Compounds, Into Animals” (priority 2005, published 2008).

Columns and labels:
[1] = Solubility of M4N in non-ionic surfactants (Table 21, visual inspection); format: physicochemical
Protocol: A 10 mL solution of M4N at a concentration of about 60 mg/mL in Tween® 20 was made as follows. About 10 mL of Tween® 20 were added to a glass beaker containing a stir bar. The beaker was placed on a magnetic plate and the stir bar was set to stir at medium speed. About 600 mg of M4N were slowly added to the Tween® 20 in the center of the beaker with the aid of a spatula to prevent M4N from sticking to the beaker wall. The M4N/Tween® 20 mixture was stirred for 2 hr or until all M4N had dissolved or was uniformly suspended without any clumps being present. The M4N/Tween® 20 mixture was heated at about 60° C. for about 30 min. (or longer if a larger volume of solution was desired, for example, 1 hr at 60° C. for 500 mL of the M4N/Tween® 20 mixture), or longer as need to ensure complete dissolution of M4N. […] The final M4N/Tween® 20 solution was stored at room temperature and was kept protected from light. If crystals were to form during storage, the M4N/Tween® 20 solution could be heated again at 60° C. for about 1 hr, with stirring, on a hot magnetic plate or until all M4N was dissolved back in solution.
This process may be scaled up or down to obtain the requisite volume or concentration of M4N and the heating temperature may be increased or decreased to achieve dissolution of M4N. Formulations containing M4N in other non-ionic surfactant, ionic surfactants or amphiphilic molecules may be similarly made, such as, for example, by substituting Tween® 20 in the process described above with Tween® 80, other solubilizing agents, and combinations thereof.

[2] = Solubility of M4N in water-soluble organic solvents (Table 20, visual inspection); format: physicochemical
Protocol: A 100 mL solution of M4N at a concentration of about 25 mg/mL in PEG 300 was made as follows. About 100 mL of PEG 300 were added to a glass beaker containing a stir bar. The beaker was placed on a magnetic plate and the stir bar was set to stir at medium speed. About 2.5 g of M4N were slowly added to the PEG 300 in the center of the beaker with the aid of a spatula to prevent M4N from sticking to the beaker wall. The M4N/PEG 300 mixture was stirred for 24 hr or until all M4N had dissolved or was uniformly suspended without any clumps being present. The M4N/PEG 300 mixture was optionally heated at about 60° C. for about 30 min. (or longer if a larger volume of solution was desired, for example, 1 hr at 60° C. for 500 mL of the M4N/PEG 300 mixture), or longer as needed to ensure complete dissolution of M4N. […] If crystals formed, the M4N/PEG 300 solution could be heated again at 60° C. for about 1 hr, with stirring, on a hot magnetic plate until all M4N was dissolved back in solution. The final M4N/PEG 300 solution was stored at room temperature and was kept protected from light. This process may be scaled up or down to obtain the requisite volume or concentration of M4N. Formulations containing M4N in other PEGs may be similarly made, such as, for example, by substituting PEG 300 in the process described above with PEG 400 or PEG 400 monolaurate.
This process may be scaled up or down to obtain the requisite volume or concentration of M4N and the heating temperature may be increased or decreased to achieve dissolution of M4N. Formulations containing M4N in other water-insoluble lipids combined with non-ionic surfactants, ionic surfactants or water-soluble organic solvents may be similarly made, such as, for example, by substituting sesame oil or Tween® 20 in the process described above with corn oil, olive oil, soybean oil, peppermint oil, Tween® 80, d-alpha-tocopheryl polyethylene glycol 1000 succinate (TPGS), lecithin, PEG 300, PEG 400, PEG 400 monolaurate, glycerol, polyvinylpyrrolidone (“PVP”), propylene glycol (“PG”), or other solubilizing agents, and combinations thereof.

In the case of `COc1ccc(C[C@@H](C)[C@@H](C)Cc2ccc(OC)c(OC)c2)cc1OC` [Formulation M4N, meso-1,4-bis(3,4-dimethoxyphenyl)-2,3-dimethylbutane], the “Stability at Room Temperature” value ([1]; 50% Tween ® 20, 50% PEG 400, M4N 30 mg/mL) is reported as greater than 3 days, the “Dissolution After Heating” value ([1]; 50% Tween ® 20, 50% PEG 400, M4N 30 mg/mL, heating at 65° C.) is reported as “Y at 65 °C” and the “Stability at Room Temperature” value ([1]; 50% Tween ® 20, 50% PEG 400, M4N 40 mg/mL) is reported as greater than 3 days. For the same compound, the “Dissolution After Heating” value ([1]; 50% Tween ® 20, 50% PEG 400, M4N 40 mg/mL, heating at 65° C.) was “Y at 65 °C”, the “Stability at Room Temperature” value ([1]; 50% Tween ® 20, 50% PEG 400, M4N 50 mg/mL) was greater than 3 days and the “Dissolution After Heating” value ([1]; 50% Tween ® 20, 50% PEG 400, M4N 50 mg/mL, heating at 65° C.) was “Y at 65 °C”. The “Stability at Room Temperature” value ([1]; 50% Tween ® 20, 50% PEG 400, M4N 60 mg/mL) was greater than 3 days, the “Dissolution After Heating” value ([1]; 50% Tween ® 20, 50% PEG 400, M4N 60 mg/mL, heating at 65° C.) was “Y at 65 °C” and the “stable at room temperature” value ([1]; 50% Tween® 20 and 50% PEG 400, after cooling) was “more than 3 days”. The “Stability at Room Temperature” value ([1]; Tween ® 20 100% (v/v), M4N 1 mg/mL) was greater than 7 days, the “Stability at Room Temperature” value ([1]; Tween ® 20 100% (v/v), M4N 10 mg/mL) was greater than 7 days and the “Dissolution After Heating” value ([1]; Tween ® 20 100% (v/v), M4N 10 mg/mL, heating at 50° C.) was “Y at 50 °C”. The “Stability at Room Temperature” value ([1]; Tween ® 20 100% (v/v), M4N 20 mg/mL) was greater than 7 days, the “Dissolution After Heating” value ([1]; Tween ® 20 100% (v/v), M4N 20 mg/mL, heating at 50° C.) was “Y at 50 °C” and the “Stability at Room Temperature” value ([1]; Tween ® 20 100% (v/v), M4N 40 mg/mL) was less than 3 days. For the same compound, the “Dissolution After Heating” value ([1]; Tween ® 20 100% (v/v), M4N 40 mg/mL, heating at 50° C.) was “Y at 50 °C”, the “Stability at Room Temperature” value ([1]; Tween ® 20 100% (v/v), M4N 60 mg/mL) was less than 3 days and the “Dissolution After Heating” value ([1]; Tween ® 20 100% (v/v), M4N 60 mg/mL, heating at 50° C.) was “Y at 50 °C”. For the same compound, the “Dissolution After Heating” value ([1]; Tween ® 20 100% (v/v), M4N 80 mg/mL, heating at 50° C.) was “Y at 50 °C”, the “Dissolution After Heating” value ([1]; Tween ® 20 100% (v/v), M4N 100 mg/mL, heating at 50° C.) was “Y at 50 °C” and the “Stability at Room Temperature” value ([1]; Tween ® 80 100% (v/v), M4N 1 mg/mL) was greater than 3 days. For the same compound, the “Stability at Room Temperature” value ([1]; Tween ® 80 100% (v/v), M4N 10 mg/mL) was greater than 3 days, the “Dissolution After Heating” value ([1]; Tween ® 80 100% (v/v), M4N 10 mg/mL, heating at 50° C.) was “Y at 50 °C” and the “Stability at Room Temperature” value ([1]; Tween ® 80 100% (v/v), M4N 50 mg/mL) was less than 1 days. The “Dissolution After Heating” value ([1]; Tween ® 80 100% (v/v), M4N 50 mg/mL, heating at 50° C.) was “Y at 50 °C”, the “stable at room temperature” value ([1]; Tween® 20, M4N 1 mg/mL) was “more than 7 days” and the “stable at room temperature” value ([1]; Tween® 20, M4N 10 mg/mL and 20 mg/mL) was “more than 7 days”. For the same compound, the “stable at room temperature” value ([1]; Tween® 20, M4N 40 mg/mL and 80 mg/mL) was “less than 3 days”, the solution upon cooling ([1]; Tween® 20, M4N 80 mg/mL and 100 mg/mL) was “becoming insoluble upon cooling” and the “concentrations at which M4N remained in solution after cooling” value ([1]; Tween® 20, dissolved at 50° C.) was “up to 60 mg/mL”. For the same compound, the “stable at room temperature” value ([1]; Tween® 80, M4N 1 mg/mL) was “more than 3 days”, the “stable at room temperature” value ([1]; Tween® 80, M4N 10 mg/mL) was “more than 3 days” and the “stable at room temperature” value ([1]; Tween® 80, M4N 50 mg/mL) was “less than 1 day”. The “concentrations at which M4N remained in solution after cooling” value ([1]; Tween® 80, dissolved at 50° C.) was “up to 50 mg/mL”, the “Dissolution After Heating” value ([2]; 40% Propylene Glycol, 10% Ethanol, M4N 10 mg/mL, temperature not given) was “N” and the “Stability Time at Room Temperature” value ([2]; Ethanol 100%, M4N 1 mg/mL) was greater than 3 days. For the same compound, the “Dissolution After Heating” value ([2]; Ethanol 100%, M4N 10 mg/mL, heating at 37° C.) was “N at 37 °C”, the “Dissolution After Heating” value ([2]; Glycerol 100%, M4N 1 mg/mL, heating at 70° C.) was “Y at 70 °C” and the “Dissolution After Heating” value ([2]; Glycerol 100%, M4N 10 mg/mL, heating at 70° C.) was “Y at 70 °C”. For the same compound, the “Dissolution After Heating” value ([2]; Glycerol 100%, M4N 20 mg/mL, heating at 70° C.) was “Y at 70 °C”, the “Dissolution After Heating” value ([2]; PEG 300 33%, M4N 10 mg/mL, heating at 50° C.) was “N at 50 °C” and the “Stability Time at Room Temperature” value ([2]; PEG 300 100%, M4N 25 mg/mL) was less than 7 days. The “Dissolution After Heating” value ([2]; PEG 300 100%, M4N 25 mg/mL, heating at 50° C.) was “Y at 50 °C”, the “Stability Time at Room Temperature” value ([2]; PEG 300 100%, M4N 30 mg/mL) was less than 3 days and the “Dissolution After Heating” value ([2]; PEG 300 100%, M4N 30 mg/mL, heating at 50° C.) was “Y at 50 °C”. The “Stability Time at Room Temperature” value ([2]; PEG 300 100%, M4N 40 mg/mL) was less than 1 days, the “Dissolution After Heating” value ([2]; PEG 300 100%, M4N 40 mg/mL, heating at 50° C.) was “Y at 50 °C” and the “Stability Time at Room Temperature” value ([2]; PEG 300 100%, M4N 50 mg/mL) was less than 1 days. The “Dissolution After Heating” value ([2]; PEG 300 100%, M4N 50 mg/mL, heating at 60° C.) was “Y at 60 °C”, the “Dissolution After Heating” value ([2]; PEG 300 100%, M4N 100 mg/mL, heating at 60° C.) was “Y at 60 °C” and the “Dissolution After Heating” value ([2]; PEG 400 5%, M4N 10 mg/mL, heating at 50° C.) was “N at 50 °C”. For the same compound, the “Stability Time at Room Temperature” value ([2]; PEG 400 100%, M4N 25 mg/mL) was less than 7 days, the “Dissolution After Heating” value ([2]; PEG 400 100%, M4N 25 mg/mL, heating at 50° C.) was “Y at 50 °C” and the “Stability Time at Room Temperature” value ([2]; PEG 400 100%, M4N 30 mg/mL) was less than 3 days. The “Dissolution After Heating” value ([2]; PEG 400 100%, M4N 30 mg/mL, heating at 50° C.) was “Y at 50 °C”, the “Stability Time at Room Temperature” value ([2]; PEG 400 100%, M4N 40 mg/mL) was less than 1 days and the “Dissolution After Heating” value ([2]; PEG 400 100%, M4N 40 mg/mL, heating at 50° C.) was “Y at 50 °C”. For the same compound, the “Stability Time at Room Temperature” value ([2]; PEG 400 100%, M4N 50 mg/mL) was less than 1 days, the “Dissolution After Heating” value ([2]; PEG 400 100%, M4N 50 mg/mL, heating at 60° C.) was “Y at 60 °C” and the “Dissolution After Heating” value ([2]; PEG 400 100%, M4N 100 mg/mL, heating at 60° C.) was “Y at 60 °C”. The “Dissolution After Heating” value ([2]; PEG 400 monolaurate 100%, M4N 20 mg/mL, heating at 50° C.) was “Y at 50 °C”, the “Dissolution After Heating” value ([2]; PEG 400 monolaurate 100%, M4N 50 mg/mL, heating at 50° C.) was “Y at 50 °C” and the “Dissolution After Heating” value ([2]; PVP 15%, M4N 1 mg/mL, heating at 90° C.) was “N at 90 °C”. For the same compound, the “Dissolution After Heating” value ([2]; PVP 15%, M4N 10 mg/mL, heating at 90° C.) was “N at 90 °C”, the “Stability Time at Room Temperature” value ([2]; Propylene Glycol 100%, M4N 1 mg/mL) was less than 1 days and the “Dissolution After Heating” value ([2]; Propylene Glycol 100%, M4N 1 mg/mL, heating at 55° C.) was “Y at 55 °C”. The “Stability Time at Room Temperature” value ([2]; Propylene Glycol 100%, M4N 10 mg/mL) was less than 1 days, the “Dissolution After Heating” value ([2]; Propylene Glycol 100%, M4N 10 mg/mL, heating at 55° C.) was “Y at 55 °C” and the “Stability Time at Room Temperature” value ([2]; Propylene Glycol 100%, M4N 20 mg/mL) was less than 1 days. For the same compound, the “Dissolution After Heating” value ([2]; Propylene Glycol 100%, M4N 20 mg/mL, heating at 55° C.) was “Y at 55 °C”.
